Assay: Solubility of compound in PBS at pH 7.4 at 100 uM incubated for 120 mins by LC-MS/MS analysis
Assay type: physicochemical
Conditions: buffer, pH 7.4, 2 h

Row | solubility | Structure (SMILES)
1 | Soluble | CCOC(=O)[C@@H]1[C@H]2C[C@H]3c4[nH]c5ccccc5c4CCN3C[C@@H]2CC[C@@H]1O
2 | Soluble | O=C(OC1CNC1)[C@@H]1[C@H]2C[C@H]3c4[nH]c5ccccc5c4CCN3C[C@@H]2CC[C@@H]1O
3 | Soluble | CNCCOC(=O)[C@@H]1[C@H]2C[C@H]3c4[nH]c5ccccc5c4CCN3C[C@@H]2CC[C@@H]1O
4 | Soluble | O=C(OC1COC1)[C@@H]1[C@H]2C[C@H]3c4[nH]c5ccccc5c4CCN3C[C@@H]2CC[C@@H]1O
5 | Soluble | N[C@H]1C[C@@H](OC(=O)[C@@H]2[C@H]3C[C@H]4c5[nH]c6ccccc6c5CCN4C[C@@H]3CC[C@@H]2O)C1
6 | Soluble | CC(C)OC(=O)[C@@H]1[C@H]2C[C@H]3c4[nH]c5ccccc5c4CCN3C[C@@H]2CC[C@@H]1O

The next lines start with the molecule.

Row | Structure (SMILES) | solubility
7 | O=C(OC[C@@H]1CCNC1)[C@@H]1[C@H]2C[C@H]3c4[nH]c5ccccc5c4CCN3C[C@@H]2CC[C@@H]1O | Soluble
8 | O=C(OC[C@H]1CCCN1)[C@@H]1[C@H]2C[C@H]3c4[nH]c5ccccc5c4CCN3C[C@@H]2CC[C@@H]1O | Soluble
9 | O=C(O[C@H]1CCNC1)[C@@H]1[C@H]2C[C@H]3c4[nH]c5ccccc5c4CCN3C[C@@H]2CC[C@@H]1O | Soluble
10 | CN1CC[C@H](OC(=O)[C@@H]2[C@H]3C[C@H]4c5[nH]c6ccccc6c5CCN4C[C@@H]3CC[C@@H]2O)C1 | Soluble
11 | O=C(O[C@H]1CCOC1)[C@@H]1[C@H]2C[C@H]3c4[nH]c5ccccc5c4CCN3C[C@@H]2CC[C@@H]1O | Soluble
12 | O=C(OC[C@H]1CCNC1)[C@@H]1[C@H]2C[C@H]3c4[nH]c5ccccc5c4CCN3C[C@@H]2CC[C@@H]1O | Soluble
13 | O=C(O[C@@H]1CCNC1)[C@@H]1[C@H]2C[C@H]3c4[nH]c5ccccc5c4CCN3C[C@@H]2CC[C@@H]1O | Soluble
14 | O=C(OC1CCNCC1)[C@@H]1[C@H]2C[C@H]3c4[nH]c5ccccc5c4CCN3C[C@@H]2CC[C@@H]1O | Soluble
15 | N[C@H]1C[C@H](OC(=O)[C@@H]2[C@H]3C[C@H]4c5[nH]c6ccccc6c5CCN4C[C@@H]3CC[C@@H]2O)C1 | Soluble
16 | O=C(OC[C@H]1CCN1)[C@@H]1[C@H]2C[C@H]3c4[nH]c5ccccc5c4CCN3C[C@@H]2CC[C@@H]1O | Soluble
17 | O=C(N[C@H]1CCNC1)[C@@H]1[C@H]2C[C@H]3c4[nH]c5ccccc5c4CCN3C[C@@H]2CC[C@@H]1O | Soluble
